# Values quoted from earlier work as cited in patent publication US20130158016A1, “ANESTHETIC ASSOCIATION, ANESTHETIC COMPOSITION, AND […] VETERINARY USE” (Ouro Fino Participacoes e Empreendimentsos S/A, priority 2010, published 2013).
# Tested on: female dogs
# Conditions: 2 mg/kg intravenously (slow), prophylactic
compound,measurement,value
COc1cccc(C2(O)CCCCC2CN(C)C)c1 (stereo not drawn) [tramadol],analgesia after ovariosalpingohisterectomy,analgesia similar to that produced by morphine
same,effect on expired concentration of isoflurane,reducing the expired concentration of isoflurane
same,neuroendocrine response to pain (catecholamine and cortisol),reducing the peaks of catecholamine and cortisol
